The record followed here is PubChem BioAssay (NCI).

Holding throughout (assay): DTP human tumour cell line panel, 48 h
Assay [1] relates to A549 NSCLC.
Assay [2] deals with HCT-15 colon.
For assay [3], the system named is M14 melanoma.
Assay [4] relates to NCI-H460 lung.
For assay [5], the system named is NCI/ADR-RES ovarian.
The test system of assay [6] is OVCAR-8 ovarian.
In assay [7] the test system is RPMI-8226 leukemia.
Assay [8] concerns SF-268 CNS.
Assay [9] deals with SK-MEL-2 melanoma.
For assay [10], the system named is HOP-62 NSCLC.

Several values for one entry are separate records, joined by “and”; a condition that tells them apart may be missing. Equal entries are not always repeated.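 Grown in 96-well plates, cells were treated for 48 hours with each compound at five concentrations. Insufficient inhibition: endpoint recorded as highest concentration tested. Abbreviation: GI50, concentration required for 50% inhibition of growth. At the TGI there is no net growth.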

By GI50 is commonly meant the concentration at which growth is held to half of that of the control. By TGI is commonly meant the concentration at which net growth stops. A high value points to lower sensitivity of the cells.

For `CC(C)=C[C@@H]1C[C@H](C)[C@H]2CC[C@H](C)C3=C2[C@](O)(OC3=O)[C@]1(C)O`, the GI50 in [1], in [2], in [3], in [4], in assay [5] and in assay [6] was more than 100 µM each time. For the same compound, the GI50 in [7] and in assay [9] was more than 100 µM in each case. Also, the TGI in [1], in assay [2], in assay [3], in assay [4], in assay [5] and in assay [6] was more than 100 µM each time. Further, the concentration for total growth inhibition (TGI) in assay [7], in assay [8] and in assay [9] was more than 100 µM throughout.

For the compound `OCCN1CN(CCO)CN(c2nc(N3CN(CCO)CN(CCO)C3)nc(N3CN(CCO)CN(CCO)C3)n2)C1`, the TGI amounted to 69.5 ng/mL in [1]; 3.55 ng/mL in [3]; 3.85 ng/mL in assay [4]; 3.98 ng/mL in assay [5]; 13.3 ng/mL in assay [6]; 0.63 ng/mL in assay [7]. In assay [8], this compound showed a total growth inhibition concentration (TGI) of 2.04 ng/mL. The GI50 in assay [3] is 1.36 ng/mL; in assay [4] it was 0.92 ng/mL; in assay [5] it was 0.867 ng/mL.

As for `CC1OC(n2cc(F)c(=O)[nH]c2=O)C=CC1O` (stereo not drawn), the TGI in assay [1], in [2], in assay [10], in [3], in assay [4] and in [6] was more than 100 µM throughout. In addition, the TGI in [7], in assay [8] and in assay [9] was more than 100 µM in each case.

Consider `CCN(CC)CCOc1ccc(/C=C(\C#N)c2ccc(OCCN(CC)CC)cc2)cc1`, for which the concentration for total growth inhibition (TGI) in [1] amounted to 44.7 µM; in [2], 30.8 µM; in [10] it was 22.6 µM; in assay [3], 19.9 µM; in assay [4] it was 36.6 µM; in [6], 42.6 µM. Besides, the total growth inhibition concentration (TGI) in assay [7] was 50.1 µM; in [8], 53.9 µM; in assay [9], 39.9 µM.

`COC(=O)c1cc2c(cc1O)[C@@H](NC(C)=O)CCc1cc(OC)c(OC)c(OC)c1-2`: the GI50 in assay [1] was 0.0313 µM; in assay [2] it was 0.0226 µM; in assay [3], 0.0293 µM; in [4], 0.0296 µM; in assay [5] it was 0.0596 µM; in assay [6], 0.0404 µM. Also, the GI50 is 0.0524 µM in [7], 0.447 µM in assay [8] and less than 0.01 µM in assay [9]. Besides, the total growth inhibition concentration (TGI) in assay [1] was more than 100 µM; in assay [3] it was more than 100 µM; in assay [4], more than 100 µM; in assay [7], more than 100 µM; in assay [8], more than 100 µM; in assay [9], 0.0371 µM.

`Clc1ccc2c(NCCCNc3nccc(Nc4ccc(Br)cc4)n3)ccnc2c1`: the GI50 is 1.78 µM in [1]; 1.28 µM in [2]; 1.71 µM in assay [3]; 1.76 µM in assay [4]; 1.79 µM in [5]; 1.97 µM in assay [7]. The GI50 in [8] was 1.73 µM; in assay [9], 2.1 µM. For the same compound, the total growth inhibition concentration (TGI) in assay [1] worked out at 3.52 µM; in [2] it was 2.7 µM; in assay [3], 3.5 µM; in assay [4], 3.44 µM; in [5], 3.42 µM; in assay [7], 4.45 µM. For the same compound, the total growth inhibition concentration (TGI) in assay [8] was determined as 3.32 µM; in assay [9], 3.67 µM.

On to `O=S(O)CCCCSSCC(O)C(O)CSSCCCCS(=O)O` (stereo not drawn), for which the concentration for total growth inhibition (TGI) was more than 100 µM in [1]; more than 100 µM in assay [2]; more than 100 µM in [10]; 24.2 µM and 30.6 µM in assay [3]; more than 100 µM in assay [4]; 96.5 µM and > 100 µM in assay [6]. Further, the TGI in assay [7] is 46.4 µM and 46.1 µM; in assay [8], 32.1 µM and 57.9 µM; in assay [9] it was 37.4 µM and 49.8 µM.

Take `O=C1c2ccccc2C2(Br)C(=O)c3ccccc3C12` (stereo not drawn): the concentration for total growth inhibition (TGI) in assay [1], in [2], in assay [10], in assay [3], in assay [4] and in assay [6] was more than 100 µM in each case. Besides, the TGI in assay [7], in [8] and in assay [9] was more than 100 µM each time.

With `O=C1CN=C(C[N+](=O)[O-])c2ccccc21`, the TGI in assay [1], in [2], in assay [10], in assay [3], in assay [4] and in assay [6] was more than 100 µM in each case. In addition, the TGI in [7], in [8] and in [9] was more than 100 µM in each case.
